Results as given in patent publication US20240002467A1, “COMPOSITIONS AND METHODS OF INHIBITING THE BINDING OF PLASMA IGG AUTOANTIBODIES TO SEROTONIN 2A RECEPTOR” (UNITED STATES GOVERNMENT AS REPRESENTED BY THE DEPARTMENT …, priority 2020, published 2024).
Values joined by “and” are separate entries in the source; they are usually repeats but may differ in a detail not shown here. Identical values can stand only once. “Also recorded” adds a separate entry of the source. Ends that are not written are not given here.

Legend:
[1] = cited from earlier work
[2] = test system: male Zucker diabetic fatty rats; assay: Tail cuff blood pressure in male ZDF rats after IP peptide; assay type: in vivo, rat; design: systolic blood pressure within 15 minutes of administration: unit not given here; settings: for mean systolic blood pressure, baseline: 8.5-week-old male ZDF rats before single IP: pegylated 1 mg/kg (n=3), scrambled 2 mg/kg (n=4); for Estimate: difference in mean diastolic blood pressure vs scrambled decoy peptide 2 (time series analysis) / Estimate: difference in mean systolic blood pressure vs scrambled decoy peptide 2 (time series analysis): pegylated 1 mg/kg IP vs scrambled 2 mg/kg IP (reference = 0)
Procedure: Animals. Male ZDF and lean (+/?) Zucker rats were obtained from Charles River Laboratories (Kingston, NY) at approximately 6-7 weeks of age. The rats were single housed upon arrival, without enrichment. Rats were acclimatized for two weeks prior to experimental procedures. Rats were provided ad libitum access to food and water and maintained in a 12 h light/dark cycle with lights on at 0630. The procedures occurred during the light phase of the cycle. Blood pressure testing (following acute or chronic administration of the decoy peptides) was conducted in three separate cohorts of animals.
Cohort 1: Three 25-week-old male ZDF and three, age-matched, male Zucker lean rats (ZLR) treated with IP decoy peptide 2 (ZDF) vs saline (vehicle) (ZLR).
Cohort 2: Eleven-week old male ZDF (n=5) and Zucker lean rats (n=4) treated with IP decoy peptide 2.
Cohort 3: Twelve 8.5-week old male Zucker diabetic fatty rats were randomly assigned to one of three treatment groups (n=4/group). The rats underwent baseline blood pressure determinations using tail-cuff plethysmography technique. Next, the animals who expressed baseline hypertension, i.e., blood pressure >135/85, received either a 1 mg/kg intraperitoneal injection of pegylated decoy peptide 2 (n=3); a 2 mg/kg intraperitoneal dose of a scrambled decoy peptide 2 (n=4); or vehicle (i.e., sterile saline) (N=4). Blood pressure was determined at 15 minutes, 45 minutes, 4 hours, 8 hours, 24 hours, 30 and 48 hours following single IP injection. One week later, the same two groups of ZDF rats received either 0.75 mg/kg IP pegylated decoy peptide 2, 2 mg/kg scrambled decoy peptide 2, or sterile saline; and blood pressure was determined at similar timepoints. Two weeks later, two groups of 12-week-old ZDF rats (n=6/group) including those that had previously received acute peglyated decoy peptide 2 or scrambled decoy peptide 2 were treated on an alternative daily schedule with IP, free decoy peptide 2 (2 mg/kg) vs IP scrambled decoy peptide 2 (2 mg/kg) continuously for 13 weeks until sacrifice at 25 weeks of age. Body weight was determined immediately before sacrifice and after perfusion; and hearts were excised and weighed for determination of the heart-to-(perfused) body weight ratio.
(§1) Blood pressure monitoring. Tail cuff blood pressure measurement was performed using an automated CODA noninvasive blood pressure system (Kent Scientific, Torrington, CT). Rats were placed on an insulated warming platform in a well-heated room to ensure proper body temperature. Cuff monitors were provided in different sizes to accommodate rats of different ages and having different body weights. After the animal was positioned in the clear plastic restraint holder, the appropriate-sized cuff was slid over the rat's tail.
Statistical Analysis. Comparisons were made using Student's unpaired t-test (Tables 3-6, 9 and FIG. 18) or time series analysis (Tables 7, 8, FIG. 16).
as §1, with “CT.).” for “CT).”
Experiment 1: Four 12-week-old male ZDF rats were randomly assigned to receive either a single IP injection of a scrambled sequence (SEQ ID NO: 7) of Peptide ID #2 (SEQ ID NO: 2) at 1 mg/kg concentration or a 1 mg/kg concentration of myristolated Peptide ID #2 (SEQ ID NO: 9). Blood pressure was determined using tail cuff plethysmography (Kent Scientific) at 1, 4, 6, 48 and 72 hours post-injection.
Experiment 2: Six 12-week-old male ZDF rats were assigned to each of three treatment groups (N=2/group). […]

[3] = test system: Zucker diabetic fatty rats; settings: rat, in vivo
[4] = test system: Zucker diabetic fatty rats; settings: ZDF rats treated 6 months, cited from earlier work
[5] = test system: Zucker diabetic fatty rats; assay: Observation of side effects / tolerability in ZDF rats
[6] = once-daily valsartan 160 mg; cited from earlier work
[7] = test system: Zucker diabetic fatty rats; assay: Plasma hepatic transaminases (AST, ALT) after chronic IP treatment of ZDF rats; assay type: in vivo, rat; settings: 2 mg/kg IP alternate daily weeks 10-16, blood at week 16, vs saline
Procedure: Two groups of Zucker diabetic fatty rats (N=4 each) were treated with alternate daily intraperitoneal dose (IP) of either a composition comprising decoy peptide 2 (SEQ ID NO: 2) (2 mg/kg) or an equal volume of sterile saline (vehicle) for […] (between weeks 10-16). Blood was obtained at week 16 for determination of plasma hepatic transaminases (AST, ALT) and plasma triglycerides.

[8] = 8.5-week-old male ZDF rats, single IP: pegylated 1 mg/kg, scrambled 2 mg/kg
[9] = ZDF rats, before pegylated 0.75 mg/kg IP
[10] = ZDF rats, pegylated 0.75 mg/kg single IP
[11] = ZDF rats, listed as Peg decoy peptide 2
[12] = ZDF rats, pegylated 1 mg/kg single IP

For `CC/C=C\C/C=C\C/C=C\C/C=C\C/C=C\CCCC(=O)O` [EPA], the “HR for cardiovascular events” value ([1]; REDUCE-IT) is listed as 0.75, the “reduction in occurrences of cardiovascular death, nonfatal heart attack, nonfatal stroke, coronary stenting or bypass or unstable angina” value ([1]; REDUCE-IT) is listed as 25% and the “reduction of plasma triglyceride level” value ([1]; humans, chronic treatment, REDUCE-IT after 1 year) is listed as 18% and 18.3%.
With “K(DBCO-DSPE-PEG2K)-SCLLADDN (not fully specified; Lys-DBCO-DSPE-PEG2000 conjugate; MOD_RES (1)..(1) Lys(Azide)) [pegylated decoy peptide 2]” the “mean systolic blood pressure, baseline” value [2] was 155 mm Hg, the “mean systolic blood pressure, baseline” value ([2]; listed as Pegylated decoy peptide 2) was 155+/−12 mm Hg and the “mean diastolic blood pressure, baseline” value ([2]; 8.5-week-old male ZDF rats before single IP: pegylated 1 mg/kg, scrambled 2 mg/kg) was 105+/−8 mm Hg. The “mean diastolic blood pressure 45 minutes post-injection” value [2, 8] was 92+/−11 mm Hg, the “mean systolic blood pressure 45 minutes post-injection” value [2, 8] was 122+/−5 mm Hg and the “diastolic blood pressure, baseline” value [2, 9] was 108 mm Hg. For the same molecule, the “systolic blood pressure, baseline” value [2, 9] was 154 mm Hg, the “diastolic blood pressure 30 hours post injection” value [2, 10] was 80 mm Hg and the “diastolic blood pressure at 45 minutes post-injection” value [2, 10] was 80 mm Hg. For the same molecule, the “diastolic blood pressure lowering at 45 minutes post-injection” value [2, 10] was 19%, the “reduction of systolic blood pressure at 45 minutes post-injection” value [2, 10] was 17% and the “reduction of systolic blood pressure between 24-30 hours after injection” value [2, 10] was 14-19%. The “systolic blood pressure at 45 minutes post-injection” value [2, 10] was 128 mm Hg, the “time at which diastolic blood pressure recovered to baseline” value [2, 10] was 48 h and the “time at which systolic blood pressure recovered to baseline” value [2, 10] was 48 h. For the same molecule, the “Estimate: difference in mean diastolic blood pressure vs scrambled decoy peptide 2 (time series analysis)” value ([2]; ZDF rats) was −9.8 mm Hg, the “Estimate: difference in mean systolic blood pressure vs scrambled decoy peptide 2 (time series analysis)” value ([2]; ZDF rats) was −8.9 mm Hg and the “Estimate: difference in mean diastolic blood pressure vs scrambled decoy peptide 2 (time series analysis)” value [2, 11] was −9.7771 mm Hg. For the same molecule, the “Estimate: difference in mean systolic blood pressure vs scrambled decoy peptide 2 (time series analysis)” value [2, 11] was −8.9162 mm Hg, the “change of systolic blood pressure within 15 minutes vs baseline” value [2, 12] was −28% and the “diastolic blood pressure lower than baseline at 30 hours post injection” value [2, 12] was 34%. For the same molecule, the “maximum reduction of diastolic blood pressure, 8 hours after injection” value [2, 12] was 36%, the “reduction of diastolic blood pressure at 4 hours post-injection” value [2, 12] was 20% and the “systolic blood pressure within 15 minutes of administration” value [2, 12] was 111. The “time after which systolic blood pressure had returned to baseline” value [2, 12] was 48 h, the “dose dependence of systolic and diastolic blood pressure lowering, in words” value ([2]; ZDF rats, single IP 0.75 to 1 mg/kg) was “significant, dose-dependent systolic and diastolic blood pressure lowering effects; also recorded: significant, dose-dependent, long-lasting systolic and diastolic blood pressure-lowering effect” and the “effect on diastolic blood pressure, in words” value ([2]; ZDF rats, single IP: pegylated 1 mg/kg, scrambled 2 mg/kg) was “trend of significant acute decline in diastolic blood pressure”. The “sustained reductions in systolic and diastolic blood pressure 30 hours after administration” value ([2]; male ZDF rat, pegylated 1 mg/kg) was 25-26% and the “tolerability after the initial dose” value [3] was “no sedation or hypotension was observed after the initial dose”.
In the case of `CN(C)C(=N)N=C(N)N` [metformin], the “serum ALT, times higher than upper limit of normal” value ([4]; both groups) is given as “more than 3 times” and the “serum ALT” value ([4]; metformin or vehicle (both groups)) is given as roughly 142 IU/L.
In the case of `CC(C)C[C@H](NC(=O)[C@H](CS)NC(=O)[C@H](CC(=O)O)NC(=O)[C@H](CC(N)=O)NC(=O)[C@H](CO)NC(=O)[C@H](C)NC(=O)[C@@H](N)CC(C)C)C(=O)N[C@@H](CC(=O)O)C(=O)O` [scrambled decoy peptide 2, reference compound], the “untoward physical or behavioral effect” value ([5]; ten ZDF rats (Expt 1 and 2), up to 14-21 days after single IP) is reported as “None of the ten rats tested (N=4 in Expt 1; N=6 in Expt 2) experienced any untoward physical or behavioral effect”.
In the case of `CCCCC(=O)N(Cc1ccc(-c2ccccc2-c2nnn[nH]2)cc1)[C@H](C(=O)O)C(C)C` [valsartan], the “systolic blood pressure-lowering effect after 24 hours, in words” value [6] is given as “no significant systolic blood pressure-lowering effect”.
With SCLLADDN [decoy peptide 2] the “mean plasma AST” value [7] was “did not differ significantly; also recorded: not associated with significant increase in AST”, the “side effects of acute blood pressure-lowering” value ([5]; 11-week-old male ZDF rats (N=5), 2 mg/kg IP) was “none of the five male ZDF rats experienced any untoward side effects including hypotension or acute sedation” and the “acute side effects after first dose” value ([5]; 25-week-old male ZDF rats, 2 mg/kg IP, two of three rats, resolved spontaneously) was “sedation and borderline hypotension”. The “side effects after repeat drug exposure” value ([5]; 25-week-old male ZDF rats, up to 18 days after repeat 2 mg/kg IP) was “no untoward acute or long-term side effects”, the “long-term side effects after chronic administration” value ([5]; ZDF rats, chronic (10 weeks) administration) was “No untoward long-term side effects were observed” and the “safety and tolerability of alternate daily dosing” value ([5]; obese Zucker rats, 2 mg/kg alternate daily) was “safe, well-tolerated”.
